Data published in US20250340593A1, “METHOD AND COMPOSITION FOR TREATING NEURODEGENERATIVE DISORDER” (priority 2022, published 2025).
pKd: −log10 of the molar value. Residues, ends and D or L forms follow the SMILES beside them.

Tests used:
[1] = target: T1, biotinylated Aβ42 oligomers (Aβo (42)) (Homo sapiens, UniProt P05067); assay: Peptide array probed with biotinylated Aβ42 oligomers; assay type: binding; conditions: biotinylated Aβo 0.1 to 10 μg.mL-1, BP result at the lowest concentration (0.1 μg/ml-1)
T1 construct: purchased Bachem; host or cells: chemical synthesis
Protocol: In the context of the invention, cellulose-bound peptide arrays encompassing the heparin binding domain and the C-terminal human VEGF sequence (UniProtKB #P15692) were synthesized by Proteomic Solutions. Overlapping 15-mer peptides were shifted by 3 aa and two copies of the same array were spotted on the slide for quality control and reproducibility. Arrays were blocked for 2 h in Tris buffered saline, 1% Tween 20, 5% BSA to prevent unspecific binding, and were subsequently probed for 15 h at 4° C. with biotinylated AB42 oligomers (Aβo (42)) using concentrations varying from 0.1 to 10 μg.mL-1 or vehicle used as a control. After washing in TBS 1% Tween 20, peptide arrays were incubated with HRP-conjugated Streptavidin for 2 h at RT. Aβo interaction was detected using SuperSignal West Pico PLUS chemiluminescent substrate and non-specific Aβ binding was determined using the control peptide (CP) spotted on the peptide array. […]
Cellulose-bound peptide arrays encompassing the heparin binding domain and the C-terminal human VEGF sequence (UniProtKB #P15692) were synthesized by Proteomic Solutions. […] Aβo interaction was detected using SuperSignal West Pico PLUS chemiluminescent substrate and non-specific Aβ binding was determined using the control peptide (CP) spotted on the peptide array. […]

AB40 monomers (Aβm) = target: T2, AB40 monomers (Aβm) (Homo sapiens, UniProt P05067); assay: Indirect ELISA, binding of coated peptide to biotinylated Aβ40 monomers
T2 construct: synthetic biotinylated Aβ42 oligomers (Aβo) or AB40 monomers (Aβm); purchased Bachem; host or cells: chemical synthesis
Protocol: The binding of the CP or BP to synthetic biotinylated Aβ42 oligomers (Aβo) or AB40 monomers (Aβm) was determined by indirect ELISA in which the CP or BP were used as the capture antigens and the biotin tag of the biotinylated Aβ peptides for the detection. 96-well clear polystyrene microplate (BioTechne DY990) were coated overnight at 4° C. with 5 μM of the CP or BP in PBS, pH 7.4. After immobilization, the plate was washed three times with PBS 0.05% Tween 20 and various concentrations of biotinylated Aβ peptides were added in triplicate from 0.1 μg.mL-1 to 10 μg.mL-1 (21 nM to 2.1 μM for Aβo (42), 22 nM to 2.2 μM for Aβm (40) and incubated for 2 h at RT. After additional washes with PBS 0.05% Tween 20, HRP-conjugated streptavidin (1/40) was added for 20 min at RT, followed by a washing step and an incubation in substrate solution containing 3,3′,5,5′-Tetramethylbenzidine (TMB) and H2O2. The reaction was stopped by H2SO4. Absorbance was successively measured at 450 and 540 nm with a TECAN microplate reader and optical density values at 540 nm were subtracted from the ones at 450 nm to correct for optical imperfections of the plate. Unspecific Aβ binding to the microplate was determined using non-coated wells.

monomeric Aβ42 = target: T3, monomeric Aβ42 (Homo sapiens, UniProt P05067); assay: Thioflavin-T assay of Aβ42 aggregation kinetics; assay type: biochemical; conditions: for inhibition of fibril formation (normalized ThT fluorescence): 15 μM monomeric Aβ, equimolar peptide, 24 hours; for ThT fluorescence of peptide alone: highest concentration of peptide alone, no Aβ
T3 construct: purchased Bachem; host or cells: chemical synthesis
Protocol: Thioflavin-T (ThT) assays were performed in black polystyrene 384-well plates with transparent bottom using a Tecan microplate reader with a set of excitation/emission wavelengths of 450/490 nm. Monomeric Aβ42 was prepared as described above and blocking or control peptides (BP ou CP) were used at indicted concentrations, ranging from 0.5 to 15 μM. The final concentration of ThT and monomeric AB42 was used at 15 μM in PBS buffer (pH 7.4), with a total reaction volume per well of 110 μL. The plate was sealed with a transparent plastic film and incubated at 37° C. prior to fluorescence measurement. ThT fluorescence intensity was monitored every 5 min over 24 h at 37° C. without agitation. Three replicates per condition were measured.

T3 sequence (P05067 672-713 limits assumed): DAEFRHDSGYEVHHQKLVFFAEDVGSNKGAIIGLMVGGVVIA
T1 sequence (P05067 672-713 limits assumed): as above
T2 sequence (P05067 672-711 limits assumed): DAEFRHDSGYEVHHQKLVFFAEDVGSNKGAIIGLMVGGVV

Row | Compound | labeling of peptide spot by biotinylated Aβo [1] | pKd (AB40 monomers (Aβm)) | inhibition of fibril formation (normalized ThT fluorescence) (monomeric Aβ42) | ThT fluorescence of peptide alone (monomeric Aβ42) | steepness of the exponential phase corresponding to Aβ42 nucleation (monomeric Aβ42; peptide 0.5 to 15 μM, 15 μM Aβ42) | binding to Aβm (AB40 monomers (Aβm); ELISA, peptide coated at 5 μM)
1 | CC(C)[C@H](NC(=O)[C@H](Cc1ccc(O)cc1)NC(=O)[C@@H](NC(=O)[C@H](CO)NC(=O)[C@H](Cc1c[nH]c2ccccc12)NC(=O)[C@H](CO)NC(=O)[C@H](CCCCN)NC(=O)[C@H](Cc1ccc(O)cc1)NC(=O)[C@H](CCCNC(=N)N)NC(=O)[C@H](CO)NC(=O)[C@H](CCCCN)NC(=O)[C@H](CCCCN)NC(=O)[C@H](CCCNC(=N)N)NC(=O)[C@@H](N)CCCCN)C(C)C)C(=O)NCC(=O)O [BP, KRKKSRYKSWSVYVG] (H-KRKKSRYKSWSVYVG-OH; N-terminus and C-terminus assumed) | clear staining | 4.72 | 95% | does not induce any increase in ThT fluorescence | decreases with increasing concentrations | 
2 | NDYKDDDDKGAAA [CP, reference compound] | no labelling |  | no significant effect | does not induce any increase in ThT fluorescence |  | fails to bind
